Laboratory results reported in PMC8125647, “A Validated LC–MS/MS Assay for the Simultaneous Quantification of the FDA-Approved Anticancer Mixture (Encorafenib and Binimetinib): Metabolic Stability Estimation” (Molecules, 2021).
Where two headings read alike, the source gives them in different places.

Assays:
[1] = Solubility in DMSO (stock preparation); format: physicochemical; settings: stocks at 1 mg/mL
Description: We subsequently conducted serial dilution of the stock solutions with the optimized mobile phase to obtain stocks (S1) for ENF and BNB at a 100 µg/mL concentration. The S1 stocks were then serially diluted with mobile phase to obtain stocks (S2) for ENF and BNB at a 10 µg/mL concentration. The AVB stock was dissolved in DMSO to obtain a 100 µg/mL concentration that was then serially diluted with the mobile phase to obtain a stock (S3) of AVB at a 1 µg/mL concentration.

[2] = Metabolic stability after incubation with human liver microsomes (LC-MS/MS); format: in vitro ADME; settings: for Slope (rate constant of disappearance, ln % remaining vs time): HLM; for half-life at 1 µM / microsomal CLint at 1 µM: human, human liver microsomes, HLM 1 mg/mL; for half-life at 1 µM: NADPH 1 mM, 37 °C, read-out: in vitro t1/2 (half-life); for microsomal CLint at 1 µM: read-out: CLint (intrinsic clearance)
Description: The slope of each regression equation was used to estimate the in vitro t1/2 using the following equations:(1) In vitro t 1/2=ln2/slope (2) In vitro t 1/2=0.693/slope
Similarly, the CLint of ENF and BNB was calculated following the in vitro t1/2 method (15) using the following equation:(3) CLint, =0.693/in vitro t 1/2. µL incubation/mg microsomes (4) CLint, =0.693/in vitro t 1/2. 1000 /1
BNB and ENF concentration during HLM incubation was adjusted to 1 µM to ensure that it was less than the Michaelis–Menten constant and constructed a linear relationship between the ratio of metabolism and incubation time. HLMs (1 mg/mL) in phosphate buffer were used to confirm the absence of nonspecific protein binding. We performed metabolic stability assessments for ENF and BNB by measuring the decrease in ENF and BNB concentrations after incubation with an HLM matrix. One micromole from ENF and BNB was incubated with HLM (1 mg protein in 1 mL phosphate buffer) in triplicate. The metabolic reaction medium was phosphate buffer (pH 7.4) containing 3.3 mM MgCl2. The metabolic mixture was pre-incubated in a 37 °C water bath for 10 min for temperature conditioning. NADPH (1 mM) was used for the initiation of the metabolic reaction, after which 2 mL ACN was used to terminate the reaction at specific time intervals (0, 1, 2.5, 7.5, 15, 30, and 50 min), allowing us to establish metabolic stability curves for ENF and BNB. We conducted this metabolic experiment for ENF alone, BNB alone, and a mixture of ENF and BNB to evaluate the metabolic stability of BNB and ENF alone and combined. The proportion of BNB and ENF remaining either alone or combined was plotted versus incubation time. From this plot, time points in the linear range were selected to plot the natural logarithm (ln) of the remaining proportions of ENF and BNB versus time. The slope of the linear part indicated the rate constant for ENF and BNB disappearance that was used for in vitro t1/2 calculation using equation (1). Then, ENF and BNB CLint values, either alone or combined, were calculated by applying the following Equation (3).

[3] = Stability in deactivated HLM matrix under laboratory storage conditions; format: physicochemical
Description: We evaluated the stability of ENF and BNB in deactivated HLM matrix (1 mg protein/1 mL phosphate buffer) under common laboratory storage conditions. Analyte stability evaluation was performed in different conditions: Room temperature for 8 h, three freeze–thaw cycles, storage at 4 °C for 24 h, and storage at −20 °C for 30 d. Measured values were 96.55–101.64% for ENF and 96.79–100.05% for BNB. Stability data for ENF and BNB are described in Table 4. […] The stability data reveal that the LC–MS/MS method could be successfully used for assaying ENF and BNB without noticeable loss.
The accuracy and precision of the proposed method were investigated inter- and intra-day. The intra- and inter-day accuracy and precision values were calculated according to USFDA guidelines. The stability of ENF and BNB in different conditions, room temperature for 8 h, three freeze–thaw cycles, and storage at 4 °C for 24 h and at −20 °C for 30 d, were examined.

[4] = pH 7.4, in mixture of ENF and BNB
[5] = room temperature for 8 h, 15 ng/mL
[6] = room temperature for 8 h, 150 ng/mL
[7] = room temperature for 8 h, 400 ng/mL
[8] = stored at 4 °C for 24 h, 400 ng/mL
[9] = stored at −20 °C for 30 days, 15 ng/mL
[10] = stored at −20 °C for 30 days, 150 ng/mL
[11] = stored at −20 °C for 30 days, 400 ng/mL
[12] = three freeze–thaw cycles, 15 ng/mL
[13] = three freeze–thaw cycles, 150 ng/mL
[14] = three freeze–thaw cycles, 400 ng/mL

Compound	Solubility in DMSO [1]	Slope (rate constant of disappearance, ln % remaining vs time) ([2]; drug alone)	half-life at 1 µM ([2]; pH 7.4, drug alone) [min]	microsomal CLint at 1 µM ([2]; pH 7.4, drug alone) [µL/min/mg]	half-life at 1 µM [2, 4] [min]	microsomal CLint at 1 µM [2, 4] [µL/min/mg]	Slope (rate constant of disappearance, ln % remaining vs time) ([2]; in mixture of ENF and BNB)	Stability, measured values over all storage conditions ([3]; room temperature 8 h, three freeze–thaw cycles, 4 °C 24 h, −20 °C 30 d)	Recovery % [3, 5] [%]	Recovery % [3, 6] [%]	Recovery % [3, 7] [%]	Recovery % [3, 8] [%]	Recovery % [3, 9] [%]	Recovery % [3, 10] [%]	Recovery % [3, 11] [%]	Recovery % [3, 12] [%]	Recovery % [3, 13] [%]	Recovery % [3, 14] [%]	Recovery % ([3]; stored at 4 °C for 24 h, 15 ng/mL) [%]	Recovery % ([3]; stored at 4 °C for 24 h, 150 ng/mL) [%]
C=CC(=O)Nc1cccc(Oc2nc(Nc3ccc(N4CCN(C)CC4)c(F)c3)nc3[nH]ccc23)c1 [AVB, avitinib]	freely soluble	–	–	–	–	–	–	–	–	–	–	–	–	–	–	–	–	–	–	–
COC(=O)N[C@@H](C)CNc1nccc(-c2cn(C(C)C)nc2-c2cc(Cl)cc(NS(C)(=O)=O)c2F)n1 [ENF, encorafenib]	freely soluble	0.0161	43.1	16.1	45.9	15.1	0.0151	96.55–101.64%	101.64	100.55	101.46	98.21	100.18	96.55	98.41	97.37	97.22	99.66	–	–
Cn1cnc2c(F)c(Nc3ccc(Br)cc3F)c(C(=O)NOCCO)cc21 [BNB, binimetinib]	freely soluble	0.0115	60.3	11.5	58.2	11.9	0.0119	–	99.25	98.25	98.85	99.33	96.72	97.72	98.78	98.32	96.79	97.48	100.05	97.59
